The target in this test is T1, AmPDH (Agaricus meleagris pyranose dehydrogenase) (Macropsalliota meleagris, UniProt Q3L245).
T1 construct: gene pdh1; recombinant from Pichia pastoris X-33, secreted glycoprotein, about 75 kDa, monomer, 577 amino acids, covalent 8alpha-N(3)-histidyl FAD at H103
In words: stopped-flow reductive half-reaction, […] nm. It counts as biochemical. Conditions: pH 7.5, 65 mM sodium phosphate, 30 °C; 0.1-5 mM D-glucose; only a bimolecular rate constant.

The structures appear in SMILES notation.

T1 sequence (Q3L245 26-602): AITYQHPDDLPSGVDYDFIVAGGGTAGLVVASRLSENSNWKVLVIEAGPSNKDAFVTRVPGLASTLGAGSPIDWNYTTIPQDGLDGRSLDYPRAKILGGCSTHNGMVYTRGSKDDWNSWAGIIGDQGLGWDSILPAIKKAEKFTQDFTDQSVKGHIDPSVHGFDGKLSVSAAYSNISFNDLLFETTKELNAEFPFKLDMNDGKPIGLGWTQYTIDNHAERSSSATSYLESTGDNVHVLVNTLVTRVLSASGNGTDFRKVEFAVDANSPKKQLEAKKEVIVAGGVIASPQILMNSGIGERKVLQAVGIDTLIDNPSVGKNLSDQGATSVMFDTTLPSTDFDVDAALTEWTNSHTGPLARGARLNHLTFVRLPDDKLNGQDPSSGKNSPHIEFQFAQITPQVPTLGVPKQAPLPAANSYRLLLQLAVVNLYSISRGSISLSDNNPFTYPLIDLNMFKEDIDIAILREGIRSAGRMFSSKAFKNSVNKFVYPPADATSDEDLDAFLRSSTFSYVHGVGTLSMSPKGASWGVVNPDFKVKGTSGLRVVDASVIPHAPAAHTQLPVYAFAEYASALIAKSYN

Turning to `OC[C@H]1OC(O)[C@H](O)[C@@H](O)[C@@H]1O` (stereo partly drawn) [D-glucose], the kapp result is “spectral changes of wild-type AmPDH upon addition of D-glucose”.

The record behind these values is article PMC4148704, “Agaricus meleagris pyranose dehydrogenase: Influence of covalent FAD linkage on catalysis and stability” (Archives of Biochemistry and Biophysics, 2014).
